Experimental data published in ChEMBL document CHEMBL5500406, “Discovery of Novel Proteolysis-Targeting Chimera Molecules as Degraders of Programmed Cell Death-Ligand 1 for Breast Cancer Therapy” (J Med Chem, 2024).
Activity calls are given as the source filed them. No cut-off for these calls is given here.

Tests used:
[1] = system: 4T1; test: Antitumor activity against mouse 4T1 cells allografted in BALB/c mouse assessed as increase in IFN-gamma mRNA level in tumor at 60 mg/kg, ip qd for 15 days by qRT-PCR analysis; assay type: functional, organism-based; conditions: time 15.0 day
[2] = Half life in Sprague-Dawley rat at 3 mg/kg, iv measured for 24 hrs by LC-MS/MS analysis; assay type: ADME, organism-based; conditions: in vivo
[3] = system: 4T1; test: Antitumor activity against mouse 4T1 cells allografted in BALB/c mouse assessed as reduction in tumor volume at 60 mg/kg, ip qd for 15 days in presence of Paclitaxel; assay type: functional, organism-based; conditions: time 15.0 day
[4] = Toxicity in BALB/c mouse allografted with mouse 4T1 cells assessed as pathological change in lung at 60 mg/kg, ip qd for 15 days in presence of Paclitaxel by H and E staining based analysis; assay type: organism-based; conditions: in vivo, 360 h, time 15 day
[5] = system: 4T1; test: Antitumor activity against mouse 4T1 cells allografted in BALB/c mouse assessed as reduction in tumor weight at 60 mg/kg, ip qd for 15 days in presence of Paclitaxel; assay type: functional, organism-based; conditions: time 15.0 day
[6] = target: T1, Protein cereblon/Programmed cell death 1 ligand 1 (Mus musculus) (UniProt Q9EP73+Q8C7D2); test: PROTAC activity at CRBN/PD-L1 in mouse 4T1 cells assessed as reduction in green fluorescence in cell membrane at 0.312 uM incubated for 24 hrs by immunofluorescence analysis; assay type: cell membranes
T1 sequence (Q9EP73 19-290 limits assumed, one chain of several): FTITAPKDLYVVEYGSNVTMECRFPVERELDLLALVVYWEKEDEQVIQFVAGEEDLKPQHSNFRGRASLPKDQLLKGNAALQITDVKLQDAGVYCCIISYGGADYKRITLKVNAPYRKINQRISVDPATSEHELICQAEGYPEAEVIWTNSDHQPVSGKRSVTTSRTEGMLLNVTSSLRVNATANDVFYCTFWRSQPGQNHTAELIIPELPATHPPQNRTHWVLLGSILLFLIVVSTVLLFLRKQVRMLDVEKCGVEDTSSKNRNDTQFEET

[7] = Toxicity in BALB/c mouse allografted with mouse 4T1 cells assessed as pathological change in heart at 30 to 60 mg/kg, ip qd for 15 days by H and E staining based analysis; assay type: organism-based; conditions: in vivo, 360 h, dose 30-60 mg/kg, time 15 day
[8] = target: T1, Protein cereblon/Programmed cell death 1 ligand 1 (Mus musculus); test: PROTAC activity at CRBN/PD-L1 in mouse 4T1 cells assessed as protein degradation at 0.312 uM incubated for 24 hrs in presence of siCRBN by Western blot analysis; assay type: cell-based
[9] = system: 4T1; test: Antitumor activity against mouse 4T1 cells allografted in BALB/c mouse assessed as increase in Prf1 mRNA level in tumor at 60 mg/kg, ip qd for 15 days by qRT-PCR analysis; assay type: functional, organism-based; conditions: time 15.0 day
[10] = target: Protein cereblon/Programmed cell death 1 ligand 1 (Homo sapiens) (UniProt Q9NZQ7+Q96SW2); test: PROTAC activity at CRBN/PD-L1 in human MDA-MB-231 cells assessed as protein degradation at >=5 uM measured for 24 hrs by Western blot analysis; assay type: cell-based
Sequence of Protein cereblon/Programmed cell death 1 ligand 1 (Homo sapiens) (Q96SW2 whole entry, looked up): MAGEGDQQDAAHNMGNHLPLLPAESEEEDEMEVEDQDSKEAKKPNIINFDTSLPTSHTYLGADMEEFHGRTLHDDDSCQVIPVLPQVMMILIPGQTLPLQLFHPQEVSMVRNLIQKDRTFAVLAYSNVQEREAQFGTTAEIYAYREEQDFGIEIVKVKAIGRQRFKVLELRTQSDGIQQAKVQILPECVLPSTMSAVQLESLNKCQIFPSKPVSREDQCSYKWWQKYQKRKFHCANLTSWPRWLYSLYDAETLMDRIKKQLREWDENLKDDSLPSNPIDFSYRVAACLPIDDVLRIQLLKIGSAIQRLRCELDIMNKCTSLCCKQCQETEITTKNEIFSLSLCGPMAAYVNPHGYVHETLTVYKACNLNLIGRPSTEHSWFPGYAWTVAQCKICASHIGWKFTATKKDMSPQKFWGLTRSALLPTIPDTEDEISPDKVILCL
Sequence of Protein cereblon/Programmed cell death 1 ligand 1 (Homo sapiens) (Q9NZQ7 whole entry, looked up): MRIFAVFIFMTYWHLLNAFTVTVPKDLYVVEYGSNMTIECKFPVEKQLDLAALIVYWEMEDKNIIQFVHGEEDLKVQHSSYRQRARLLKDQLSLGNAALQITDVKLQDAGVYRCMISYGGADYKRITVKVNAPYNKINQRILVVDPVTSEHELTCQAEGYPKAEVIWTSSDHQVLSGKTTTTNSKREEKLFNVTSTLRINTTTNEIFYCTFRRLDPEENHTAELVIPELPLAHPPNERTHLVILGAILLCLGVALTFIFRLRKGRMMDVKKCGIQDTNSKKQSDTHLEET

[11] = target: Programmed cell death 1 ligand 1 (Mus musculus, UniProt Q9EP73); test: Binding affinity to mouse PD-L1 assessed as dissociation constant incubated for 15 mins by MST assay
Sequence of Programmed cell death 1 ligand 1 (Q9EP73 whole entry): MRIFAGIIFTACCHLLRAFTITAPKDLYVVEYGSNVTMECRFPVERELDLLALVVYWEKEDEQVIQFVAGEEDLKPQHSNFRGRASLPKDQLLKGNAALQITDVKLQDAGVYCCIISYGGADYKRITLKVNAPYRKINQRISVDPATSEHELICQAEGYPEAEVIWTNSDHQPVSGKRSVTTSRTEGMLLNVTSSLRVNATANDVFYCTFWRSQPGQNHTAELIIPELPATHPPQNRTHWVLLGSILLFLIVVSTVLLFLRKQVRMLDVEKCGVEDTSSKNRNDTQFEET

[12] = Toxicity in BALB/c mouse allografted with mouse 4T1 cells assessed as abnormality in biochemical analysis at 30 to 60 mg/kg, ip qd for 15 days; assay type: organism-based; conditions: in vivo, 360 h, dose 30-60 mg/kg, time 15 day
[13] = target: Protein cereblon/Programmed cell death 1 ligand 1 (Mus musculus, UniProt Q9EP73+Q8C7D2); test: PROTAC activity at CRBN/PD-L1 in mouse 4T1 cells assessed as protein degradation incubated for 24 hrs by Western blot analysis; assay type: cell-based
Sequence of Protein cereblon/Programmed cell death 1 ligand 1 (Q9EP73 whole entry, one chain of several): as the sequence (Q9EP73 whole entry) above

[14] = Toxicity in BALB/c mouse allografted with mouse 4T1 cells assessed as pathological change in liver at 30 to 60 mg/kg, ip qd for 15 days by H and E staining based analysis; assay type: organism-based; conditions: in vivo, 360 h, dose 30-60 mg/kg, time 15 day
[15] = target: T1, Protein cereblon/Programmed cell death 1 ligand 1 (Mus musculus); test: PROTAC activity at CRBN/PD-L1 in mouse 4T1 cells assessed as reduction in green fluorescence in cytoplasm at 0.312 uM incubated for 24 hrs by immunofluorescence analysis; assay type: subcellular
[16] = target: T1, Protein cereblon/Programmed cell death 1 ligand 1 (Mus musculus); test: PROTAC activity at CRBN/PD-L1 in mouse 4T1 cells assessed as protein degradation at 0.078 to 0.312 uM incubated for 24 hrs by flow cytometry; assay type: cell-based; conditions: dose 0.078-0.312 µM
[17] = Toxicity in BALB/c mouse allografted with mouse 4T1 cells assessed as pathological change in kidney at 60 mg/kg, ip qd for 15 days in presence of Paclitaxel by H and E staining based analysis; assay type: organism-based; conditions: in vivo, 360 h, time 15 day
[18] = system: 4T1; test: Antitumor activity against mouse 4T1 cells allografted in BALB/c mouse at 60 mg/kg, ip qd for 15 days in presence of Paclitaxel relative to control; assay type: functional; conditions: 4T1, 360 h, time 15 day, read-out: TGI
[19] = Toxicity in BALB/c mouse allografted with mouse 4T1 cells assessed as pathological change in heart at 60 mg/kg, ip qd for 15 days in presence of Paclitaxel by H and E staining based analysis; assay type: organism-based; conditions: in vivo, 360 h, time 15 day
[20] = target: T2, Protein cereblon (Mus musculus, UniProt Q8C7D2); test: Binding affinity to mouse CRBN assessed as dissociation constant incubated for 15 mins by MST assay
T2 sequence (Q8C7D2 whole entry): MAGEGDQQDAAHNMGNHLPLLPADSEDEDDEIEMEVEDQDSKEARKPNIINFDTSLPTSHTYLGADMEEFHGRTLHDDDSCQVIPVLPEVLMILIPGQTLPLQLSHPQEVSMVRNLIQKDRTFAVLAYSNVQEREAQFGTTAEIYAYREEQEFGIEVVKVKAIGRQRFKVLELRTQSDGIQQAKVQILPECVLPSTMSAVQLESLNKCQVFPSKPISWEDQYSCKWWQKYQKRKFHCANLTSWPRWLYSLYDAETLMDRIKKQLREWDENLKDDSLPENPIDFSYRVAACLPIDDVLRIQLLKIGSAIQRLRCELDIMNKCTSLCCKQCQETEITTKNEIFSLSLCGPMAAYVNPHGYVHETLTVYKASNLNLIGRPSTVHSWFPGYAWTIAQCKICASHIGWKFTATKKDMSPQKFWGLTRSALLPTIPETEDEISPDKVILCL

[21] = Toxicity in BALB/c mouse allografted with mouse 4T1 cells assessed as abnormality in routine blood analysis at 60 mg/kg, ip qd for 15 days in presence of Paclitaxel; assay type: organism-based; conditions: in vivo, 360 h, time 15 day
[22] = Volume of distribution at steady state in Sprague-Dawley rat at 3 mg/kg, iv measured for 24 hrs by LC-MS/MS analysis; assay type: ADME, organism-based; conditions: in vivo, read-out: Vdss
[23] = system: 4T1; test: Antitumor activity against mouse 4T1 cells allografted in BALB/c mouse assessed as reduction in tumor weight at 30 to 60 mg/kg, ip qd for 15 days; assay type: functional, organism-based; conditions: dose 30-60 mg/kg, time 15.0 day
[24] = Clearance in Sprague-Dawley rat at 3 mg/kg, iv measured for 24 hrs by LC-MS/MS analysis; assay type: ADME, organism-based; conditions: in vivo
[25] = Toxicity in BALB/c mouse allografted with mouse 4T1 cells assessed as abnormality in biochemical analysis at 60 mg/kg, ip qd for 15 days in presence of Paclitaxel; assay type: organism-based; conditions: in vivo, 360 h, time 15 day
[26] = target: T1, Protein cereblon/Programmed cell death 1 ligand 1 (Mus musculus); test: PROTAC activity at CRBN/PD-L1 in mouse 4T1 cells assessed as protein degradation at 0.078 to 10 uM measured for 48 hrs by Western blot analysis; assay type: cell-based; conditions: dose 0.078-10 µM
[27] = target: T1, Protein cereblon/Programmed cell death 1 ligand 1 (Mus musculus); test: PROTAC activity at CRBN/PD-L1 in mouse 4T1 cells assessed as protein degradation at 0.078 to 2.5 uM incubated for 24 hrs by Western blot analysis; assay type: cell-based; conditions: dose 0.078-2.5 µM

COc1nc(OCc2cccc(-c3ccccc3)c2C)ccc1CNCCNC(=O)CCCCCCCCNC(=O)COc1ccc(C2CCC(=O)NC2=O)cc1 (configuration not stated)
Activity [1]: Active | half-life [2]: 57.1 min | Activity [3]: Active | Activity [4]: Non-Toxic | Activity [5]: Active | Activity [6]: Active | Activity [7]: Non-Toxic | Activity [8]: inactive | Activity [9]: Active | Activity [10]: Active | Kd [11]: 59.2 µM | Activity [12]: Non-Toxic | DC50 [13]: 0.609 µM | Activity [14]: Non-Toxic | Activity [15]: Active | Activity [16]: Active | Activity [17]: Non-Toxic | inhibition in vivo at 60 mg/kg [18]: 86.7% | Activity [19]: Non-Toxic | Kd [20]: 132 µM | Activity [21]: Non-Toxic | Vd [22]: 23 L/kg | Activity [23]: Active | clearance [24]: 471 mL/min/kg | Activity [25]: Non-Toxic | Activity [26]: Active | Activity [27]: Active
